Tests used:
Format in all cases: cell-based
SMARCA2 [1] = biological target: T1, SMARCA2 (Homo sapiens, UniProt P51531); experiment: MSD SMARCA2 degradation in A549 cell line; conditions: 24 h; for Dmax: A549, A549 cells; for DC50: A549 cells, read-out: SMARCA2 MSD A549 degradation 24 h: Average external-Abs DC50
Method in brief: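 SMARCA2 protein remaining after 24 h exposure of A549 cells (top concentration 1000 nM, 3-fold dilutions) was measured by MSD electrochemiluminescence immunoassay of cell lysates. Results are given as binned DC50 and maximal degradation (Dmax) codes.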

SMARCA4 = biological target: T2, SMARCA4 (Homo sapiens, UniProt P51532); experiment: SMARCA4 Western blot degradation in MV4-11 cells; conditions: 24 h; for Dmax: MV4-11, MV4-11 cells, read-out: SMARCA4 MSD MV411 degradation 24 h: average Dmax %; for DC50: MV4-11 cells, read-out: SMARCA4 MSD MV411 degradation 24 h: Mean external-Abs DC50
T2 construct: SMARCA2/SMARCA4 protein degradation selectivity in MV4-11 cells; endogenous in cells; host or cells: MV4-11
Method in brief: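 Fluorescent LI-COR imaging of Western blots quantified SMARCA2 and SMARCA4 protein remaining in MV4-11 cells after 24 h of compound treatment. β-actin was the loading control, and DC50, Dmax and SMARCA2/4 selectivity are given as letter-coded ranges.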

SMARCA2 [2] = biological target: T1, SMARCA2; experiment: SMARCA2 Western blot degradation in MV4-11 cells; design: SMARCA2/SMARCA4 protein degradation selectivity in MV4-11 cells; endogenous in cells; host or cells: MV4-11; conditions: for Dmax: MV4-11, MV4-11 cells, read-out: SMARCA2 MSD MV411 degradation 24 h: average Dmax %; for Dmax / DC50: 24 h; for DC50 / Selectivity in MV411: MV4-11 cells; for DC50: read-out: SMARCA2 MSD MV411 degradation 24 h: Mean external-Abs DC50; for Selectivity in MV411: SMARCA2/4 selectivity

T2 sequence (P51532 whole entry): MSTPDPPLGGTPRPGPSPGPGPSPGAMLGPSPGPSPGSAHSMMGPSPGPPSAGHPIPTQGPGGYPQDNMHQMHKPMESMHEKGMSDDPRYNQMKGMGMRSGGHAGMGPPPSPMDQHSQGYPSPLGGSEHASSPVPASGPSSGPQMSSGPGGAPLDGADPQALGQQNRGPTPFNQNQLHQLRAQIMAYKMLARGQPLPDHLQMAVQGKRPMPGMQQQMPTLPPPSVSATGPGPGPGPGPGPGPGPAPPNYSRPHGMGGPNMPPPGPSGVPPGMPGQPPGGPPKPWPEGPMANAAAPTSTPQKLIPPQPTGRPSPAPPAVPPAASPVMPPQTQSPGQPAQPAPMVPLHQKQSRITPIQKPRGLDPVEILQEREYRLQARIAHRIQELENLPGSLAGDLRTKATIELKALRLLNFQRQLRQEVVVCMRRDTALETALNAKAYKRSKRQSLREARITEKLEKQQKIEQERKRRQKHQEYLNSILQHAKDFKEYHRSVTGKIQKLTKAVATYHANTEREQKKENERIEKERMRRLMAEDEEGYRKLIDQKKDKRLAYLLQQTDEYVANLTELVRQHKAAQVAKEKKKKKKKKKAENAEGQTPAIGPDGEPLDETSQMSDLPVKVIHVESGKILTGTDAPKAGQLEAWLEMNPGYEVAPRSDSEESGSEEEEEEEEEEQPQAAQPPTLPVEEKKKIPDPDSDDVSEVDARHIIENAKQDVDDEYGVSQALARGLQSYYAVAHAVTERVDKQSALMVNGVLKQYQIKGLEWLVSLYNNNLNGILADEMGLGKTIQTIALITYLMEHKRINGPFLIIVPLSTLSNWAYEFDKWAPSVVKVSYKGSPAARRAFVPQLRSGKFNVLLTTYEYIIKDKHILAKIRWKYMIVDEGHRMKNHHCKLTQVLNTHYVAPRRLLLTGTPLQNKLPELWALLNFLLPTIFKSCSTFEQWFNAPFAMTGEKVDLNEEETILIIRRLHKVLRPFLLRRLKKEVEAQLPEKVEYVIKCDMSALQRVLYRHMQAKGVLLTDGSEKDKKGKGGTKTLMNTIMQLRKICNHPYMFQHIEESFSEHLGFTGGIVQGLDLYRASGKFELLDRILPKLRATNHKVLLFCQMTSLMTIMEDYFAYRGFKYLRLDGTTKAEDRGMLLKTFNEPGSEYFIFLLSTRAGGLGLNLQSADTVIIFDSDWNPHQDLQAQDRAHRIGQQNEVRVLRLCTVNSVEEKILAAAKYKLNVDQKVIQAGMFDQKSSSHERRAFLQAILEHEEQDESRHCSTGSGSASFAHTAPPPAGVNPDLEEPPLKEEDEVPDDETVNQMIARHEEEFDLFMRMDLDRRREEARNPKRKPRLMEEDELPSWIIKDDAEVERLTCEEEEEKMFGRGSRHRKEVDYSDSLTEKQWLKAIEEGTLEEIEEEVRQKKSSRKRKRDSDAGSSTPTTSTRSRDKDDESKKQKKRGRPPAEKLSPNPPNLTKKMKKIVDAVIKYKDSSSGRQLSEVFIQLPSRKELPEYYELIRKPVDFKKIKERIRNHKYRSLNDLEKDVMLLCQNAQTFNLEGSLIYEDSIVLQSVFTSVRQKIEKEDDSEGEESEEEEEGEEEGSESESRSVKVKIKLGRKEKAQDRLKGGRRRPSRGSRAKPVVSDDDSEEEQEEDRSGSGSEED
T1 sequence (P51531 whole entry): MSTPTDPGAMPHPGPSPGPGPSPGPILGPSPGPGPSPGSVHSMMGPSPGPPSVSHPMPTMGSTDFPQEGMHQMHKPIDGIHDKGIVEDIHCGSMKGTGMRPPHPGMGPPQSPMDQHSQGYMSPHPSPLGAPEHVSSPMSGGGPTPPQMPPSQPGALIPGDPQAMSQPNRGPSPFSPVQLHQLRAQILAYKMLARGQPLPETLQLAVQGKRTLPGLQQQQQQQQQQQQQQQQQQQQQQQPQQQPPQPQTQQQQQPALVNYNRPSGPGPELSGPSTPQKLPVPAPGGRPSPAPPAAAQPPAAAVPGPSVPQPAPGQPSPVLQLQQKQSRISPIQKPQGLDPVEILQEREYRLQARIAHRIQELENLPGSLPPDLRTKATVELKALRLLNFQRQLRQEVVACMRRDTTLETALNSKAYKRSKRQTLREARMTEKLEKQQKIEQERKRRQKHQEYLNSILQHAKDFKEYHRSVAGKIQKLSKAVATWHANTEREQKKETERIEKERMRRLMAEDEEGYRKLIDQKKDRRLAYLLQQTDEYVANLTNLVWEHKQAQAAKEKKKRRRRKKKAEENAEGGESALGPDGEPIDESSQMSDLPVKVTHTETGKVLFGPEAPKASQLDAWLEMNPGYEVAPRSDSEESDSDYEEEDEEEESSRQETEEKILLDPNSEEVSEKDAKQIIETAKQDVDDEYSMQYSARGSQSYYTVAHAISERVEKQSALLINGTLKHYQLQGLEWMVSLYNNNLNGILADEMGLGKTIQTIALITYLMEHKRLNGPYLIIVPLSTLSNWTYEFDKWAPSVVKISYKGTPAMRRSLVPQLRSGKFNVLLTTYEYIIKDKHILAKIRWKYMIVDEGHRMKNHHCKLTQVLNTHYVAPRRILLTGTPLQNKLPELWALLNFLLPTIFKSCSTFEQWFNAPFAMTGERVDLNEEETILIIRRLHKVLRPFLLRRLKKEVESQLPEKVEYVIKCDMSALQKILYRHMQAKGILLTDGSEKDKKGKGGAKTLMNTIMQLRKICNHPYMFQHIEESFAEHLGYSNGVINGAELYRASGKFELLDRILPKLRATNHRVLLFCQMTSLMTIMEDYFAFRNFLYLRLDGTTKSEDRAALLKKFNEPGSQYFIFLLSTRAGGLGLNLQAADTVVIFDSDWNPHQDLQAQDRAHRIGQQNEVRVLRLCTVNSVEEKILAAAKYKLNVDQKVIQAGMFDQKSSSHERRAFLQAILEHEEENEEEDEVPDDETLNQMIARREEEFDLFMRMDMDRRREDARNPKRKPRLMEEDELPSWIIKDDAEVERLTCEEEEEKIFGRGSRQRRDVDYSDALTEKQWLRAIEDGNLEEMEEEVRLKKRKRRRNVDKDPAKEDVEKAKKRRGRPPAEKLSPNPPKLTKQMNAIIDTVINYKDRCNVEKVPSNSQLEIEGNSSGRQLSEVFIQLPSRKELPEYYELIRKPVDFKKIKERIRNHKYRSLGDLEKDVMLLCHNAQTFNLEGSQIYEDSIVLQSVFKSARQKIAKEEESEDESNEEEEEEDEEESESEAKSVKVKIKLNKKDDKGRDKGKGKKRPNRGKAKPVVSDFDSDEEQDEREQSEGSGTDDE

Compound | Dmax (SMARCA2 [1]) [%] | DC50 (SMARCA2 [1]) [nM] | Dmax (SMARCA4) [%] | DC50 (SMARCA4) [nM] | Dmax (SMARCA2 [2]) [%] | DC50 (SMARCA2 [2]) [nM] | Selectivity in MV411 (SMARCA2 [2])
C#Cc1ccc(CNC(=O)[C@@H]2C[C@@H](O)CN2C(=O)[C@@H](NC(=O)N2CC3(CC(N4CCC([C@H]5CC[C@H](N6CCc7[nH]c8nnc(-c9ccccc9O)cc8c7[C@H]6C)CC5)CC4)C3)C2)C(C)(C)C)cc1 [I-184] | > 90 | > 100 | < 50 | > 100 | < 50 | > 100 | C (C (10-100 fold))
C#Cc1ccc(CNC(=O)[C@@H]2C[C@@H](O)CN2C(=O)[C@@H](NC(=O)N2CC3(CC(N4CCC([C@H]5CC[C@@H](N6CCc7[nH]c8nnc(-c9ccccc9O)cc8c7[C@H]6C)CC5)CC4)C3)C2)C(C)(C)C)cc1 [I-185] | > 90 | > 100 | 70 to 90 | > 100 | 70 to 90 | 10 to 100 | C (C (10-100 fold))
C#Cc1ccc(CNC(=O)[C@@H]2C[C@@H](O)CN2C(=O)[C@@H](NC(=O)N2CC3(CC(N4CCN([C@H]5CC[C@H](N6CCc7[nH]c8nnc(-c9ccccc9O)cc8c7[C@H]6C)CC5)CC4)C3)C2)C(C)(C)C)cc1 [I-186] | > 90 | 50 to 100 | > 90 | 10 to 100 | 70 to 90 | 10 to 100 | D (D (<10 fold))
C#Cc1ccc(CNC(=O)[C@@H]2C[C@@H](O)CN2C(=O)[C@@H](NC(=O)N2CC3(CC(N4CCN([C@H]5CC[C@@H](N6CCc7[nH]c8nnc(-c9ccccc9O)cc8c7[C@H]6C)CC5)CC4)C3)C2)C(C)(C)C)cc1 [I-187] | > 90 | 50 to 100 | 70 to 90 | > 100 | 70 to 90 | 1 to 10 | C (C (10-100 fold))
C#Cc1ccc(CNC(=O)[C@@H]2C[C@@H](O)CN2C(=O)[C@@H](NC(=O)N2CCC(CN3CCC(N4CCC(N5CCc6[nH]c7nnc(-c8ccccc8O)cc7c6[C@H]5C)CC4)CC3)CC2)C(C)(C)C)cc1 [I-189] | 50 to 70 | > 100 | < 50 | > 100 | < 50 | > 100 | C (C (10-100 fold))
C#Cc1ccc(CNC(=O)[C@@H]2C[C@@H](O)CN2C(=O)[C@@H](NC(=O)N2CC3(CC(CN4CCC(N5CCC(N6CCc7[nH]c8nnc(-c9ccccc9O)cc8c7[C@H]6C)CC5)CC4)C3)C2)C(C)(C)C)cc1 [I-190] | > 90 | > 100 | 50 to 70 | > 100 | 50 to 70 | 10 to 100 | C (C (10-100 fold))
C#Cc1ccc(CNC(=O)[C@@H]2C[C@@H](O)CN2C(=O)[C@@H](NC(=O)N2CC3(CC(N4CCC(N5CCc6[nH]c7nnc(-c8ccccc8O)cc7c6[C@H]5C)CC4)C3)C2)C(C)(C)C)cc1 [I-191] | > 90 | > 100 | 70 to 90 | > 100 | 70 to 90 | 1 to 10 | C (C (10-100 fold))
C#Cc1ccc(CNC(=O)[C@@H]2C[C@@H](O)CN2C(=O)[C@@H](NC(=O)N2CCC(C(=O)N3CCC(N4CCC(N5CCc6[nH]c7nnc(-c8ccccc8O)cc7c6[C@H]5C)CC4)CC3)CC2)C(C)(C)C)cc1 [I-192] | 70 to 90 | > 100 | < 50 | > 100 | < 50 | > 100 | C (C (10-100 fold))
C#Cc1ccc(CNC(=O)[C@@H]2C[C@@H](O)CN2C(=O)[C@@H](NC(=O)N2CCN(C[C@H]3CC[C@@H](N4CCC(N5CCc6[nH]c7nnc(-c8ccccc8O)cc7c6[C@H]5C)CC4)CC3)CC2)C(C)(C)C)cc1 [I-193] | 70 to 90 | > 100 | < 50 | > 100 | < 50 | > 100 | C (C (10-100 fold))
C#Cc1ccc(CNC(=O)[C@@H]2C[C@@H](O)CN2C(=O)[C@@H](NC(=O)N2CCN(C[C@H]3CC[C@H](N4CCC(N5CCc6[nH]c7nnc(-c8ccccc8O)cc7c6[C@H]5C)CC4)CC3)CC2)C(C)(C)C)cc1 [I-194] | 70 to 90 | > 100 | < 50 | > 100 | < 50 | > 100 | C (C (10-100 fold))
C#Cc1ccc(CNC(=O)[C@@H]2C[C@@H](O)CN2C(=O)[C@@H](NC(=O)C2CCN(CC3CCC(N4CCC(N5CCc6[nH]c7nnc(-c8ccccc8O)cc7c6[C@H]5C)CC4)CC3)CC2)C(C)(C)C)cc1 (stereo partly drawn) [I-197] | 70 to 90 | > 100 | < 50 | > 100 | < 50 | > 100 | C (C (10-100 fold))
C#Cc1ccc(CNC(=O)[C@@H]2C[C@@H](O)CN2C(=O)[C@@H](NC(=O)N2CCC(CN3CCC(N4CCc5[nH]c6nnc(-c7ccccc7O)cc6c5[C@H]4C)CC3)CC2)C(C)(C)C)cc1 [I-198] | 70 to 90 | > 100 | < 50 | > 100 | 50 to 70 | 10 to 100 | C (C (10-100 fold))
C#Cc1ccc(CNC(=O)[C@@H]2C[C@@H](O)CN2C(=O)[C@@H](NC(=O)N2CCN(C[C@H]3CC[C@@H](N4CCc5[nH]c6nnc(-c7ccccc7O)cc6c5[C@H]4C)CC3)CC2)C(C)(C)C)cc1 [I-199] | > 90 | > 100 | < 50 | > 100 | 50 to 70 | 10 to 100 | C (C (10-100 fold))
C#Cc1ccc(CNC(=O)[C@@H]2C[C@@H](O)CN2C(=O)[C@@H](NC(=O)N2CCN(C[C@H]3CC[C@H](N4CCc5[nH]c6nnc(-c7ccccc7O)cc6c5[C@H]4C)CC3)CC2)C(C)(C)C)cc1 [I-200] | > 90 | > 100 | < 50 | > 100 | 50 to 70 | 10 to 100 | C (C (10-100 fold))
C#Cc1ccc(CNC(=O)[C@@H]2C[C@@H](O)CN2C(=O)[C@@H](NC(=O)N2CCN(CC3CCN([C@H]4CC[C@@H](N5CCc6[nH]c7nnc(-c8ccccc8O)cc7c6[C@H]5C)CC4)CC3)CC2)C(C)(C)C)cc1 [I-203] | 70 to 90 | > 100 | < 50 | > 100 | < 50 | > 100 | C (C (10-100 fold))
C#Cc1ccc(CNC(=O)[C@@H]2C[C@@H](O)CN2C(=O)[C@@H](NC(=O)N2CCN(CC3CCN([C@H]4CC[C@H](N5CCc6[nH]c7nnc(-c8ccccc8O)cc7c6[C@H]5C)CC4)CC3)CC2)C(C)(C)C)cc1 [I-204] | 70 to 90 | > 100 | < 50 | > 100 | < 50 | > 100 | C (C (10-100 fold))
C#Cc1ccc(CNC(=O)[C@@H]2C[C@@H](O)CN2C(=O)[C@@H](NC(=O)N2CC3(CC(N4CC5(CC(N6CCC(N7CCc8[nH]c9nnc(-c%10ccccc%10O)cc9c8[C@H]7C)CC6)C5)C4)C3)C2)C(C)(C)C)cc1 [I-205] | > 90 | > 100 | < 50 | > 100 | < 50 | > 100 | C (C (10-100 fold))
C#Cc1ccc(CNC(=O)[C@@H]2C[C@@H](O)CN2C(=O)[C@@H](NC(=O)N2CCC(N3CC4(CC(N5CCC(N6CCc7[nH]c8nnc(-c9ccccc9O)cc8c7[C@H]6C)CC5)C4)C3)CC2)C(C)(C)C)cc1 [I-206] | 70 to 90 | > 100 | < 50 | > 100 | < 50 | > 100 | C (C (10-100 fold))
C#Cc1ccc(CNC(=O)[C@@H]2C[C@@H](O)CN2C(=O)[C@@H](NC(=O)N2CC3(CC(N4CCC(N5CC6(CC(N7CCc8[nH]c9nnc(-c%10ccccc%10O)cc9c8[C@H]7C)C6)C5)CC4)C3)C2)C(C)(C)C)cc1 [I-207] | > 90 | > 100 | < 50 | > 100 | 70 to 90 | 1 to 10 | B (B (>100-500 fold))
C#Cc1ccc(CNC(=O)[C@@H]2C[C@@H](O)CN2C(=O)[C@@H](NC(=O)N2CCC(N3CCC(N4CC5(CC(N6CCc7[nH]c8nnc(-c9ccccc9O)cc8c7[C@H]6C)C5)C4)CC3)CC2)C(C)(C)C)cc1 [I-208] | 70 to 90 | > 100 | < 50 | > 100 | < 50 | > 100 | C (C (10-100 fold))
C#Cc1ccc(CNC(=O)[C@@H]2C[C@@H](O)CN2C(=O)[C@@H](NC(=O)N2CCC(N3CC4(CC(N5CC6(CC(N7CCc8[nH]c9nnc(-c%10ccccc%10O)cc9c8[C@H]7C)C6)C5)C4)C3)CC2)C(C)(C)C)cc1 [I-209] | 70 to 90 | > 100 | < 50 | > 100 | < 50 | > 100 | C (C (10-100 fold))

— patent US20250170248A1, “SMARCA DEGRADERS AND USES THEREOF” (Kymera Therapeutics, Inc., priority 2021, published 2025)
